This is an account of results in patent publication US20050031651A1, “Therapeutic formulations for the treatment of beta-amyloid related diseases” (priority 2002, published 2005).

Read-outs that look alike come from different tables or passages of the source.

The test system of one series is amyloid deposits. To be noted: mice genetically prone to overproduce amyloid-β; nine week period; cited from earlier work.
Series [1] relates to mild and moderate Alzheimer's disease patients. To be noted: reference value, cited from earlier work.
Series [2] has the same test system. In words: Change in ADAS-Cog score of Alzheimer's patients over nine months of treatment. In kind it is in vivo, human. To be noted: Mild + Moderate AD patients combined, observed, negative change = improvement. From the text: In this example, mild and moderate patients have been treated with an alkanesulfonic acid, namely 3-amino-1-propanesulfonic acid, in combination with other therapeutic compounds used to diminish symptoms characteristic of Alzheimer's disease (e.g., loss of cognitive functions). The examples comprise the use of an alkanesulfonic acid in combination with cognitive enhancers such as acetylcholine esterase inhibitors (“AChEi”). The effect of these combination therapies on the change in ADAS-cog score in the patients was determined.
Patients were treated with the test alkanesulfonic acid for a period of 9 months. A group of patients received the test compound alone while another group were treated with the test compound in combination with an AChEi, namely donepezil.
Effect on ADAS-Cog. Upon entering the study, Alzheimer's patients were categorized as being “mild” or “moderate” according to their MMSE (“Mini Mental State Examination”) score. B.W.Rover, et al., “Mini-mental state exam in clinical practice.” Hospital Practice 22(1 A), 99 et seq. (1987). (According to this examination a MMSE score in the range of 19 to 26 was considered “mild,” and a score in the range 13 to 18 was considered “moderate”). Then, the change in mental function of these patients was analyzed by using their ADAS-Cog scores, which were recorded periodically over a nine month period. […]

The next series concerns AP42 in the brain. To be noted: transgenic mice; previously shown; cited from earlier work.
The nature of series [3]: Presence of the alkanesulfonic acid in CSF of patients (LC-MS/MS). The settings on record: patients treated three months, CSF collected five hours following dosing, 100, 200 or 300 mg daily. In kind it is in vivo, human. Here is the method:
(§1) Methodology. CSF was obtained from patients before and after treatment with the test compound at daily doses of 100 mg, 200 mg, or 300 mg. CSF was fractionated by FPLC following treatment with formic acid, and then the Aβ containing fraction was lyophilised. The amount of Aβ peptide was measured using an ELISA assay (Biosource). […] The presence of the alkanesulfonic acid in the CSF was determined in patients who had received treatment for three months. In these patients, CSF was collected five hours following dosing, and levels of alkanesulfonic acid were determined by LC-MS/MS.

The subject of another series is Aβ CSF concentration. Description: Aβ CSF concentration of patients at time 0 and 3 months (FPLC, ELISA). To be noted: for effect on CSF level of Aβ: 3-month period. In kind it is in vivo, human. Here is the method: The alkanesulfonic acid used in the study is known to have an effect on the concentration of Aβ in the brain. We also determined the effect of test compound on the change in Aβ CSF levels of patients with mild to moderate Alzheimer's disease compared to that seen in patients treated with a triple combination of test compound with AChEi and statin.
Patients treated with alkanesulfonic acid test compound in the presence or absence of AChEi and statin were evaluated for their Aβ CSF concentration at time 0 and 3 months following the initiation of treatment with the alkanesulfonic acid. The change in AP42 CSF concentration was compared to the respective placebo group.
as §1

A further series relates to SM-4 cells. The settings on record: cited from earlier work.

As to `Oc1c(I)cc(Cl)c2cccnc12` [Clioquinol, 5-chloro-7-iodo-8-hydroxyquinoline], in the series on amyloid deposits, the adverse effects entry is on record as “no adverse effects” and the amyloid deposits entry is given as “cut amyloid deposits in half”.
Take `COc1cc2c(cc1OC)C(=O)C(CC1CCN(Cc3ccccc3)CC1)C2` (centres unmarked) [AchEi, donepezil]: the “Change in ADAS-Cog over 9 months” value in series [1] (Mild AD patient group) is on record as “+5.0 reference”; in series [1] (Moderate AD patient group), “+2.5 reference”.
For `NCCCS(=O)(=O)O` [Test compound, 3-amino-1-propanesulfonic acid], the “Change in ADAS-Cog over 9 months” value in series [2] is on record as −0.5 observed; in series [2] (listed as test compound), −0.5. In the series on AP42 in the brain, the “levels of soluble and insoluble AP42 in the brain” value is “decrease the levels of both soluble and insoluble AP42”. Besides, the “presence of the alkanesulfonic acid in CSF” value in series [3] is “present in CSF of patients in a dose-dependent manner”. Also, the “effect on CSF level of Aβ” value is on record as “stable Aβ CSF levels” in the series on Aβ CSF concentration (100 mg daily doses, majority of patients) and “reduce the CSF level of Aβ” in the series with Aβ CSF concentration (200 or 300 mg daily doses). Moreover, the “decrease in Aβ CSF concentration” value with Aβ CSF concentration (mild to moderate AD patients, time 0 vs 3 months after start of treatment) was determined as 34%. The “difference in change of Aβ CSF concentration compared to the respective control group” value in the series with Aβ CSF concentration (vs placebo (test compound) or vs AChEi and statin (triple therapy), 3 months) was found to be 49%.
`CCOC(=O)C(C)(C)Oc1ccc(Cl)cc1` [clofibrate, ethyl 2-(p-chlorophenoxy)-2-methylpropionate]: the Aβ42 extracellular levels entry in the series with SM-4 cells (SM-4 cells, concentration range of 50-500 μM) is reported as “increase Aβ42 extracellular levels”.
Regarding `Cc1cccc(Nc2cc(Cl)nc(SCC(=O)O)n2)c1C` [pirinixic acid], in the series on SM-4 cells (concentration-dependent manner), the “Aβ42 production or release from SM-4 cells” value is reported as “decrease in Aβ42 production or release”.
